Test results from patent US10183030B2, “17α,21-diesters of cortexolone for use in the treatment of tumors” (COSMO TECHNOLOGIES LTD., priority 2014, dated 2019).
Read-outs that look alike come from different tables or passages of the source.

Tests used:
[1] = system: Caspase 8, 9 and 3/7 in MiaPaca2 cells; test: Caspase activity in MiaPaca2 cells; assay type: cell-based, human
Method: From previous studies was determined that CB-03-10 induces apoptosis using Annexin V staining in MiaPaca2 cells. To better analyze the phenomenon the enzymatic activity of Caspase 8 (initiator caspase for Extrinsic Pathway) and Caspase 9 (initiator caspase for Intrinsic Pathway) and of Caspases 3 and 7 (effector caspases) were measured.
After 24 hours test compounds were added to cells, Gemcitabine (a known pancreatic cancer chemotherapeutic agent) and DMSO were used as positive and negative control, respectively. After 8, 24, & 48 hours incubation with test compounds, cells were lysed in buffer containing the caspase 3/7 or 8 or 9 substrate and a stable luciferase in proprietary buffers. The lysates were transferred to white opaque plates before measuring luminescence in a Tecan Safire instrument. Parallel plates treated identically, were used to determine viable cells. All caspase activities were corrected for the number of viable cells.

[2] = In vivo pharmacokinetics in mouse plasma; details: mice; iv 20 mg/kg, SC 40 mg/kg, PO 40 mg/kg
Method: The pharmacokinetic of CB-03-10 was evaluated in plasma of mice after intravenous (IV), subcutaneous (SC) and oral administration (PO).
Mice (3 per group) were administered with the following doses, blood was collected at the indicated times. Plasma samples were analyzed by HPLC-MS/MS.

LNCaP xenograft tumor = test: LNCaP human prostate cancer xenograft in nude mice, oral dosing; assay type: in vivo, mouse
Method: 3×10^6 LNCaP cells suspended in matrigel were subcutaneously injected (on the right flank) into 6 week old male athymic nude mice. Tumors were measured as described above. Treatment with CB-03-10 and controls compounds was initiated after the tumor had reached 50 mm^3. […] Oral dosing was daily (100 mg/Kg in 200 μL/mouse) for 28 consecutive days. Results were plotted as average change in tumor volume relative to the start of treatment.

HT29 colon cancer cells = test: In vitro proliferation, HT29 (cancer cell panel); assay type: cell-based; details: Homo sapiens
Method: (§1) Each compounds was titrated from 3 uM to 200 uM.

[3] = system: MiaPaca2 (AR low) pancreatic cancer cells; test: ATP-dependent proliferation/viability assay, MiaPaca2; assay type: cell-based; details: Homo sapiens, read-out: IC50
Method: The experimental method consisted of: • 1. […] After 24 hours, 10 nM DHT (dihydrotestosterone) with or without anti-androgen compounds, or DMSO vehicle (negative control) was added to the cultures. • 3.
as §1

[4] = system: resting PBMC (quiescent, non-dividing cells); test: IC50 on resting PBMC (intrinsic toxicity); assay type: cell-based; details: Homo sapiens, resting PBMC
Method: The IC50 in PBMC were tested in 2 different activation status: • stimulated—actively dividing cells • resting—quiescent, non-dividing cells
IC50 of the compounds was determined on fresh cells isolated from human blood (PBMC).

CCCCC(=O)O[C@]1(C(=O)COC(=O)CC)CC[C@H]2[C@@H]3CCC4=CC(=O)CC[C@]4(C)[C@H]3CC[C@@]21C [CB-03-10, cortexolone 17α-valerate-21-propionate]
Caspase 3/7 induction ([1]; 8, 24, 48 hours): already at 8 hours at and a really high level after 48 hours incubation | increase in Caspase 8 and 9 activity compared to control ([1]; 20 or 50 μM, 8, 24, 48 hours, corrected for viable cells): ≤ 7 fold | plasma level of parent compound [2]: undetectable in plasma even after 1 hour regardless of the administration route | average tumor volume smaller than in the vehicle group (LNCaP xenograft tumor; 6 weeks after treatment was stopped, oral 100 mg/Kg): 3.6 times | statistical significance of tumor growth versus vehicle (LNCaP xenograft tumor; FIG. 16, oral gavage): statistically significantly different from day 7 up to day 60 | IC50 (HT29 colon cancer cells; HT-29, read-out: In vitro proliferation IC50 (micro Molar)): 14 µM | IC50 (HT29 colon cancer cells; HT-29, read-out: in vitro proliferation IC50 (μ/M)): 14 µM | IC50 ([3]; MIA PaCa-2, 72 h, MiaPaca2, 10 nM DHT, 3 days, Examples 3-4, Experiment 1): 43 µM | IC50 ([3]; MIA PaCa-2, MiaPaca2, Example 7, Experiment 1): 34 µM | IC50 ([4]; Example 7, Experiment 1, read-out: IC50 (microM) on Resting PBMC): 114 µM | IC50 ([4]; Example 7, Experiment 2, read-out: IC50 (microM) on Resting PBMC): 120 µM
